According to PMC10111423, “Antimalarial Imidazopyridines Incorporating an Intramolecular Hydrogen Bonding Motif: Medicinal Chemistry and Mechanistic Studies” (ACS Infectious Diseases, 2023):
Values after ≈ are worked out from the molar mass of the structure shown.

Columns and labels:
[1] = test system: chloroquine-sensitive (NF54) strain of P. falciparum; experiment: In vitro asexual blood-stage antiplasmodium pLDH assay, NF54 strain; format: cell-based; conditions: Plasmodium falciparum, NF54; pLDH, 72 h, n ≥ 3; read-out: In vitro antiplasmodium activity IC50 PfNF54 strain
Description: (§1) Compounds were screened against multi-drug-resistant (K1) and sensitive (NF54) strains of P. falciparum in vitro using a parasite lactate dehydrogenase assay (pLDH) (the method is described fully in the Supporting Information). […]
(§2) In vitro Asexual Blood Stage Antiplasmodium Assay
(§3) Parasites were cultured as per the method of Trager and Jensen,1 with modifications. IC50 values were determined using parasite lactate dehydrogenase as a marker for survival (Makler […]
(§4) et al, 1993). The test samples were prepared to a 10 mmol/L stock solution in 100% DMSO.
(§5) Samples were tested as a suspension if not completely dissolved. Further dilutions to the desired starting concentration were freshly prepared in growth media on each occasion of the experiment. The standard antimalarial drugs chloroquine (CQ) and artesunate (Arts) were used as the reference drug in all experiments. A full dose-response was performed for all compounds in a 96-well plate to determine the concentration inhibiting 50% of parasite growth (IC50– value). Test samples were tested at a starting concentration of 6mmol/L, which was then serially diluted 2-fold in growth medium to generate the tested concentration range. The same dilution technique was used for all samples. CQ and Arts were tested from a starting concentration of 1µg/mL. The highest concentration of solvent to which the parasites were exposed was <0.1% and has no measurable effect on the parasite viability (data not shown).
(§6) The assay plate was incubated at 37 °C for 72h in a sealed gas chamber under 3% O2 and 4% CO2 with the balance being N2. After 72h, the wells in the assay plate were gently resuspended, and 15µL from each well was transferred to a duplicate plate containing 100µL of Malstat reagent and 25µL of nitroblue tetrazolium solution in each well. Plates were left to develop for 20 minutes in the dark and then absorbance of each well was quantified using a spectrophotometer at 620nm wavelength.
(§7) The remaining population of parasites at each concentration of the test compound was determined by comparing the absorbance of each well to the absorbance of a well containing […]
(§8) the drug-free control. […]
(§9) The initial 100 µg/mL solution is serially diluted 10-

[2] = test system: multidrug-resistant (K1) strain of P. falciparum; experiment: In vitro asexual blood-stage antiplasmodium pLDH assay, K1 strain; format: cell-based; conditions: Plasmodium falciparum, 72 h, n ≥ 3, read-out: In vitro antiplasmodium activity IC50 PfK1 strain
Description: as §1, §2, §3, §4, §5, §6, §7, §8, §9

[3] = In vitro cytotoxicity MTT assay; format: cell-based, Chinese hamster; conditions: Chinese hamster, Chinese hamster ovarian (CHO) cells; MTT assay
Description: (§10) In vitro cytotoxicity was performed on the Chinese Hamster Ovarian cell line by measuring cellular growth and survival calorimetrically through the MTT assay.[29],[30] The formation of tetrazolium salt was used as a measure of chemosensitivity and growth. (Details of this assay is described in the Supporting Information.) page 19: et al, 1993). The test samples were prepared to a 10 mmol/L stock solution in 100% DMSO. Samples were tested as a suspension if not completely dissolved. Further dilutions to the desired starting concentration were freshly prepared in growth media on each occasion of the experiment. The standard antimalarial drugs chloroquine (CQ) and artesunate (Arts) were used as the reference drug in all experiments. A full dose-response was performed for all compounds […] value). Test samples were tested at a starting concentration of 6mmol/L, which was then serially diluted 2-fold in growth medium to generate the tested concentration range. The same dilution technique was used for all samples. CQ and Arts were tested from a starting concentration of 1μg/mL. The highest concentration of solvent to which the parasites were exposed was <0.1% and has no measurable effect on the parasite viability (data not shown). The assay plate was incubated at 37 °C for 72h in a sealed gas chamber under 3% O2 and 4% CO2 with the balance being N2. After 72h, the wells in the assay plate were gently resuspended, and 15μL from each well was transferred to a duplicate plate containing 100μL of Malstat reagent and 25μL of nitroblue tetrazolium solution in each well. Plates were left to develop for 20 minutes in the dark and then absorbance of each well was quantified using a spectrophotometer at 620nm wavelength. The remaining population of parasites at each concentration of the test compound was determined by comparing the absorbance of each well to the absorbance of a well containing the drug-free control. Survival was plotted against concentration and the IC50 values were obtained using a non-linear dose-response curve fitting analysis via the Dotmatics software platform.2 In vitro Cytotoxicity Assay In vitro cytotoxicity was performed on the Chinese Hamster Ovarian cell line by measuring […] diphenyltetrazolium bromide (MTT) assay.3,4 The formation of tetrazolium salt was used as a measure of chemosensitivity and growth. 2 mg/mL stock solutions of the test compounds were prepared in DMSO and stored at -20 °C until required. The stock solution was subsequently diluted with the assay medium to make up an initial concentration of 100 μg/mL. The initial 100 μg/mL solution is serially diluted 10- S19 page 20: fold to attain six assay concentrations of 100-0.001 μg/mL. […] was used as the reference compound in this assay. The highest concentration of DMSO, which was used as the negative control, had no measurable effect on cell viability. After 44 hours of exposure of the cells to the test compounds, a solution of MTT was added. This was followed by an additional 4 hours of incubation at 37 °C. The assay plates were centrifuged, medium removed, and DMSO was added to the crystals. The amount of formazan was ascertained by measuring the absorbance at 540 nm. GraphPad Prism software was then used to generate IC50 values through a non-linear dose-response curve analysis. β-Hematin Inhibition Assay 20 mM stock solutions of controls and test compounds were made in DMSO. A solution […] was added to every well in columns 1-11 of a 96-well plate. 140 μL of water and 40 μL of 305.5 μM NP-40 were added to column 12 to mediate the formation of beta-hematin. 20 μL of test compounds (20 mM) were added to column 12 and 100 μL of this solution serially diluted to column 2, leaving column 1 blank (0 μM of test compound). 178.8 μL aliquot of hematin stock was suspended in 20 ml of a 1 M acetate buffer at pH 4.9. 100 μL of this hematin suspension was then added into each well, and the plates were incubated for ±5 hrs at 37°C. […]

[4] = test system: Chinese hamster ovarian (CHO) cell line; experiment: In vitro cytotoxicity MTT assay; format: cell-based; conditions: CHO vs PfNF54
Description: as §10

β-hematin = experiment: β-Hematin inhibition assay (BHIA), cell-free NP-40 mediated; format: biochemical; conditions: mean of n = 3
Description: page 20: fold to attain six assay concentrations of 100-0.001 μg/mL. […] was used as the reference compound in this assay. The highest concentration of DMSO, which was used as the negative control, had no measurable effect on cell viability. After 44 hours of exposure of the cells to the test compounds, a solution of MTT was added. This was followed by an additional 4 hours of incubation at 37 °C. The assay plates were centrifuged, medium removed, and DMSO was added to the crystals. The amount of formazan was ascertained by measuring the absorbance at 540 nm. GraphPad Prism software was then used to generate IC50 values through a non-linear dose-response curve analysis. β-Hematin Inhibition Assay 20 mM stock solutions of controls and test compounds were made in DMSO. A solution […] was added to every well in columns 1-11 of a 96-well plate. 140 μL of water and 40 μL of 305.5 μM NP-40 were added to column 12 to mediate the formation of beta-hematin. 20 μL of test compounds (20 mM) were added to column 12 and 100 μL of this solution serially diluted to column 2, leaving column 1 blank (0 μM of test compound). 178.8 μL aliquot of hematin stock was suspended in 20 ml of a 1 M acetate buffer at pH 4.9. 100 μL of this hematin […] pH 7.4 and 50% pyridine) and 60 μL of acetone were added to all wells. The absorbances of plate wells were recorded at 405 nm on a SpectraMax plate reader. Sigmoidal dose-response curves with variable slopes were fitted to the absorbance data using GraphPad Prism to obtain the IC50 values for each compound. In vitro Microsomal Stability Assay The in vitro microsomal stability assay was performed in duplicate in a 96-well micro titre […] individually in human (pool of 50, mixed gender), rat (pool of 711, male Sprague Dawley) and mouse (pool of 1634, male CD1) liver microsomes (final protein concentration of 0.4 mg/mL; Xenotech, Kansas, USA), suspended in 0.1M phosphate buffer (pH 7.4). Incubations were S20

Solubility = format: physicochemical; conditions: pH 6.5, aqueous buffer
Text: Table 1 In Vitro Antiplasmodium Activity, Cytotoxicity, BHIA, and Solubility | column: Solubility pH 6.5, μM

| SMILES | IC50 [1] [µM] | IC50 [2] [µM] | IC50 (β-hematin) [µM] | solubility (Solubility) [µM] | IC50 at 44 h [3] [µM] | SI (selectivity index) = IC50 CHO/IC50 PfNF54 [4] |
| --- | --- | --- | --- | --- | --- | --- |
| CCN(CCNc1cc2[nH]c(C3(C(F)(F)F)CC3)nc2cn1)Cc1ccc(Cl)cc1O [Compound 7, 5-Chloro-2-((ethyl(2-((2-(1-(trifluoromethyl)cyclopropyl)-1H-imidazo[4,5-c]pyridin-6-yl)amino)ethyl)amino)methyl)phenol] | 1.67 | 6 | 275 | 175 (≈ 79.4 µg/mL) | > 50 | >29.94 |
| CCN(CCNc1cc2[nH]c(C3CCC3)nc2cn1)Cc1ccc(Cl)cc1O [Compound 9, 5-Chloro-2-(((2-((2-cyclobutyl-1H-imidazo[4,5-c]pyridin-6-yl)amino)ethyl)(ethyl)amino)methyl)phenol] | 0.67 | 6 | 128 | 170 (≈ 68 µg/mL) | > 50 | >74.63 |
| CCN(CCNc1cc2[nH]c(C3CCOCC3)nc2cn1)Cc1ccc(Cl)cc1O [Compound 3, 5-Chloro-2-((ethyl(2-((2-(tetrahydro-2H-pyran-4-yl)-1H-imidazo[4,5-c]pyridin-6-yl)amino)ethyl)amino)methyl)phenol] | 2.37 | 4.19 | 722 | 120 (≈ 51.6 µg/mL) | > 50 | >21.09 |
| CCN(CCNc1cc2[nH]c(CC3CC3)nc2cn1)Cc1ccc(Cl)cc1O [Compound 8, 5-Chloro-2-(((2-((2-(cyclopropylmethyl)-1H-imidazo[4,5-c]pyridin-6-yl)amino)ethyl)(ethyl)amino)methyl)phenol] | 0.56 | 6 | 444 | 185 (≈ 74 µg/mL) | > 50 | >89.29 |

Further molecules by falling IC50 [1], results first:

| IC50 [1] [µM] | IC50 [2] [µM] | IC50 (β-hematin) [µM] | solubility (Solubility) [µM] | SMILES | IC50 at 44 h [3] [µM] | SI (selectivity index) = IC50 CHO/IC50 PfNF54 [4] |
| --- | --- | --- | --- | --- | --- | --- |
| 2.91 | 2.34 | 18 | 120 (≈ 55 µg/mL) | CCN(CCNc1cc2[nH]c(C3CCC(OC)CC3)nc2cn1)Cc1ccc(Cl)cc1O (stereo not drawn) [Compound 18, 5-Chloro-2-((ethyl(2-((2-(4-methoxycyclohexyl)-1H-imidazo[4,5-c]pyridin-6-yl)amino)ethyl)amino)methyl)phenol] | > 50 | >17.18 |
| 0.56 | 1.89 | 127 | 135 (≈ 67 µg/mL) | CCN(CCNc1cc2[nH]c([C@H]3CC[C@H](C(F)(F)F)CC3)nc2cn1)Cc1ccc(Cl)cc1O [Compound 16, 5-Chloro-2-((ethyl(2-((2-((1r,4r)-4-(trifluoromethyl)cyclohexyl)-1H-imidazo[4,5-c]pyridin-6-yl)amino)ethyl)amino)methyl)phenol] | > 50 | >89.29 |
